molecular target: T1, USP28 (USP28-5(1-1077)-TEV-6*His; LifeSensors) (Homo sapiens, UniProt Q96RU2); experiment: Ubiquitin-Rhodamine 110 Assay for USP28 Activity, Example A-1(b); format: biochemical; conditions: Ubiquitin-Rhodamine 110 assay, Example A-1(b)
T1 construct: construct USP28 (USP28-5(1-1077)-TEV-6*His; LifeSensors); TEV cleavage site (C); 6xHis (C); purchased LifeSensors
T1 sequence (Q96RU2 1-1077): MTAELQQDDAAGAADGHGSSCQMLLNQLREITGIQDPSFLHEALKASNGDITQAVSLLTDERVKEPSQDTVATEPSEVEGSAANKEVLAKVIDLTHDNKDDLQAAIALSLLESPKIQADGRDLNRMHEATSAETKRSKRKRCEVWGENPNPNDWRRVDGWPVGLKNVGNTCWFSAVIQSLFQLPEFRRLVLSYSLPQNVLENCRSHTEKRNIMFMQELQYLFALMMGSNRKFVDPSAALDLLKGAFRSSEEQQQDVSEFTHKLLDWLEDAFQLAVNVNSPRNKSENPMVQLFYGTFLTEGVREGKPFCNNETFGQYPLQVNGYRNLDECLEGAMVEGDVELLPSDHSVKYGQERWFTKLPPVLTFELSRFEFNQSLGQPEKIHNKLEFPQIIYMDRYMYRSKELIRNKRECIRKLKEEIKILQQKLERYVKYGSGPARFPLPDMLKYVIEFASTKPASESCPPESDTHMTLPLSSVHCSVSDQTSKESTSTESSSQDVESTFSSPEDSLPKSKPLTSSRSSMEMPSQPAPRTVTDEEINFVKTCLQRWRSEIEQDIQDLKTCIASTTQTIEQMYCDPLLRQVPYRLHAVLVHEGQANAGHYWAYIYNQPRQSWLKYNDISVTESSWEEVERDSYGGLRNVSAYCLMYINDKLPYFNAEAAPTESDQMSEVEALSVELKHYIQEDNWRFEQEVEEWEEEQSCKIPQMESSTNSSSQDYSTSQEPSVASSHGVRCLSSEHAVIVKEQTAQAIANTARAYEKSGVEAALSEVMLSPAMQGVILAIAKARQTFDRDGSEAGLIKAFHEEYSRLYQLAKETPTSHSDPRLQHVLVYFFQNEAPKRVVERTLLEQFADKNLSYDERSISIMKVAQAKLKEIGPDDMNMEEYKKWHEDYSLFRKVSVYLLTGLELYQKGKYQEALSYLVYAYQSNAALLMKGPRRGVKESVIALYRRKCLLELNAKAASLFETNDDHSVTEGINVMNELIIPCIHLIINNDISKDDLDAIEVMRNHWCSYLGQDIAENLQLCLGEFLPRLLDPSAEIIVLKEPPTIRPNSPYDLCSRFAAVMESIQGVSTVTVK
Procedure, shortened: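 Single-point screening used 10 μM compound with 90 min room-temperature incubation; follow-up dose-responses (25 μM top, 3-fold) used 75 pM USP28 1-1077 construct, 30 min compound preincubation, 25 nM Ub-Rh110, 20 min reaction, citric acid quench. Rh110 fluorescence normalised to no-enzyme and DMSO controls; IC50 from 4-parameter logistic fit.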

SMILES	USP28 A-1(b) IC50 range
Cc1cnc2c(N)c(C(=O)N[C@H]3CCc4cc(N5CCNC[C@@H](O)C5)ccc4C3)sc2n1 (single isomer, unassigned) [Example 7-4]	++ (0.2-2 μM)
Cc1cnc2c(N)c(C(=O)N[C@@H]3CCc4cc(N5CCNC[C@@H](O)C5)ccc4C3)sc2n1 (single isomer, unassigned) [Example 7-5]	++ (0.2-2 μM)
Cc1cnc2c(N)c(C(=O)N[C@H]3CCc4cc(N5CCNC[C@H](O)C5)ccc4C3)sc2n1 (single isomer, unassigned) [Example 7-6]	++ (0.2-2 μM)
Cc1cnc2c(N)c(C(=O)N[C@@H]3CCc4cc(N5CCNC[C@H](O)C5)ccc4C3)sc2n1 (single isomer, unassigned) [Example 7-7]	+ (>2 μM)
Cc1ccc2c(N)c(C(=O)N[C@H]3CCc4cc(N5CCN[C@H](CO)C5)ccc4C3)sc2n1 (single isomer, unassigned) [Example 7-8]	+ (>2 μM)
Cc1ccc2c(N)c(C(=O)N[C@H]3CCc4cc(N5CCN[C@@H](CO)C5)ccc4C3)sc2n1 (single isomer, unassigned) [Example 7-9]	+ (>2 μM)
Cc1ccc2c(N)c(C(=O)N[C@@H]3CCc4cc(N5CCN[C@H](CO)C5)ccc4C3)sc2n1 (single isomer, unassigned) [Example 7-10]	++ (0.2-2 μM)
Cc1ccc2c(N)c(C(=O)N[C@@H]3CCc4cc(N5CCN[C@@H](CO)C5)ccc4C3)sc2n1 (single isomer, unassigned) [Example 7-11]	++ (0.2-2 μM)
Cc1ccc2c(N)c(C(=O)N[C@H]3COc4cc(O[C@@H]5COC6(CNC6)C5)ccc4C3)sc2n1 (single isomer, unassigned) [Example 9-1]	+++ (0.05-0.2 μM)
Cc1ccc2c(N)c(C(=O)N[C@H]3COc4cc(O[C@H]5COC6(CNC6)C5)ccc4C3)sc2n1 (single isomer, unassigned) [Example 9-2]	+++ (0.05-0.2 μM)
Cc1nc2sc(C(=O)N[C@H]3CCc4cc(N5CC6CCC(C5)N6)ccc4C3)c(N)c2cc1F (single isomer, unassigned) [Example 11-3]	++ (0.2-2 μM)
Cc1nc2sc(C(=O)N[C@@H]3CCc4cc(N5CC6CCC(C5)N6)ccc4C3)c(N)c2cc1F (single isomer, unassigned) [Example 11-4]	+++ (0.05-0.2 μM)
COc1ccc2c(N)c(C(=O)N[C@H]3CCc4cc(N5CC6CCC(C5)N6)ccc4C3)sc2n1 (single isomer, unassigned) [Example 11-5]	++ (0.2-2 μM)
COc1ccc2c(N)c(C(=O)N[C@@H]3CCc4cc(N5CC6CCC(C5)N6)ccc4C3)sc2n1 (single isomer, unassigned) [Example 11-6]	+ (>2 μM)
Cc1cnc2c(N)c(C(=O)N[C@H]3CCc4cc(N5CC6CCC(C5)N6)ccc4C3)sc2n1 (single isomer, unassigned) [Example 11-7]	++ (0.2-2 μM)
Cc1cnc2c(N)c(C(=O)N[C@@H]3CCc4cc(N5CC6CCC(C5)N6)ccc4C3)sc2n1 (single isomer, unassigned) [Example 11-8]	+ (>2 μM)
CCn1ccc2cc(C(=O)N[C@H]3CCc4cc(N5CC6CCC(C5)N6)ccc4C3)cnc21 (single isomer, unassigned) [Example 11-9]	+ (>2 μM)
CCn1ccc2cc(C(=O)N[C@@H]3CCc4cc(N5CC6CCC(C5)N6)ccc4C3)cnc21 (single isomer, unassigned) [Example 11-10]	++ (0.2-2 μM)
Cc1ccc2c(N)c(C(=O)N[C@H]3CCc4cc(N5CCNCC5)cc(F)c4C3)sc2n1 (single isomer, unassigned) [Example 11-11]	+ (>2 μM)
Cc1ccc2c(N)c(C(=O)N[C@@H]3CCc4cc(N5CCNCC5)cc(F)c4C3)sc2n1 (single isomer, unassigned) [Example 11-12]	++ (0.2-2 μM)
Cc1cnc2c(N)c(C(=O)N[C@H]3CCc4cc(N5CC6CCC(C5)N6)cc(F)c4C3)sc2n1 (single isomer, unassigned) [Example 11-13]	+ (>2 μM)
Cc1cnc2c(N)c(C(=O)N[C@@H]3CCc4cc(N5CC6CCC(C5)N6)cc(F)c4C3)sc2n1 (single isomer, unassigned) [Example 11-14]	+++ (0.05-0.2 μM)
Cc1ccc2c(N)c(C(=O)N[C@@H]3COc4cc(N5CCNCC5)ccc4[C@@H]3C)sc2n1 (single isomer, unassigned) [Example 11-18]	+ (>2 μM)
CCn1ccc2cc(C(=O)N[C@@H]3CCc4cc(N5CC6CCC(C5)N6)ccc4C3)nnc21 (single isomer, unassigned) [Example 11-23]	+ (>2 μM)
CCn1ccc2cc(C(=O)N[C@H]3CCc4cc(N5CC6CCC(C5)N6)ccc4C3)nnc21 (single isomer, unassigned) [Example 11-24]	+ (>2 μM)

same assay, conditions: Ubiquitin-Rhodamine 110 assay, format Example A-1(b)

SMILES	USP28 A-1(b) IC50 range
Cc1ccc2c(N)c(C(=O)N[C@H]3CCc4cc(N5C6CNCC5C6)ccc4C3)sc2n1 (single isomer, unassigned) [Example 11-35]	++ (0.2-2 μM)
Cc1ccc2c(N)c(C(=O)N[C@@H]3CCc4cc(N5C6CNCC5C6)ccc4C3)sc2n1 (single isomer, unassigned) [Example 11-36]	++ (0.2-2 μM)
Cc1nc2sc(C(=O)N[C@H]3CCc4cc(N5CC6CCC(C5)N6)ccc4C3)c(N)c2s1 (single isomer, unassigned) [Example 12-1]	+ (>2 μM)
Cc1ccc2c(N)c(C(=O)N[C@H]3COc4c(F)c(N5CC6CCC(C5)N6)cc(F)c4C3)sc2n1 (single isomer, unassigned) [Example 13-1]	++++ (0.001-0.05 μM)
Cc1ccc2c(N)c(C(=O)N[C@@H]3COc4c(F)c(N5CC6CCC(C5)N6)cc(F)c4C3)sc2n1 (single isomer, unassigned) [Example 13-2]	+ (>2 μM)
Cc1ccc2c(N)c(C(=O)N[C@@H]3COc4cc(N5CCNCC5)c(Cl)cc4C3)sc2n1 (single isomer, unassigned) [Example 13-6]	+++ (0.05-0.2 μM)
Cc1ccc2c(N)c(C(=O)N[C@@H]3CCc4cc(N5CCNCC5)cnc4C3)sc2n1 (single isomer, unassigned) [Example 15-1]	+ (>2 μM)
Cc1ccc2c(N)c(C(=O)N[C@H]3CCc4cc(N5CCNCC5)cnc4C3)sc2n1 (single isomer, unassigned) [Example 15-2]	+ (>2 μM)
Cc1ccc2c(N)c(C(=O)N[C@@H]3CCc4c(ccc(N5CC6CCC(C5)N6)c4F)C3)sc2n1 (single isomer, unassigned) [Example 21-1]	++ (0.2-2 μM)
Cc1ccc2c(N)c(C(=O)N[C@H]3CCc4c(ccc(N5CC6CCC(C5)N6)c4F)C3)sc2n1 (single isomer, unassigned) [Example 21-2]	++ (0.2-2 μM)
Cc1ccc2c(N)c(C(=O)N[C@@H]3CCc4cc(N5CC6CCC(C5)N6)c(F)cc4C3)sc2n1 (single isomer, unassigned) [Example 21-3]	++++ (0.001-0.05 μM)
Cc1ccc2c(N)c(C(=O)N[C@H]3CCc4cc(N5CC6CCC(C5)N6)c(F)cc4C3)sc2n1 (single isomer, unassigned) [Example 21-4]	++ (0.2-2 μM)
Cc1ccc2c(N)c(C(=O)N[C@@H]3CCc4c(ccc(N5CCNCC5)c4F)C3)sc2n1 (single isomer, unassigned) [Example 21-5]	++++ (0.001-0.05 μM)
Cc1ccc2c(N)c(C(=O)N[C@H]3CCc4c(ccc(N5CCNCC5)c4F)C3)sc2n1 (single isomer, unassigned) [Example 21-6]	++ (0.2-2 μM)
Cc1ccc2c(N)c(C(=O)N[C@@H]3CCc4cc(N5CCNCC5)c(F)cc4C3)sc2n1 (single isomer, unassigned) [Example 21-7]	+++ (0.05-0.2 μM)
Cc1ccc2c(N)c(C(=O)N[C@H]3CCc4cc(N5CCNCC5)c(F)cc4C3)sc2n1 (single isomer, unassigned) [Example 21-8]	+ (>2 μM)

From US11524966B1 (Valo Early Discovery, Inc., priority 2017, dated 2022)
